Measured values reported in patent US20090099141A1, “COMPOSITIONS AND METHODS FOR TREATING VITAMIN D DEFICIENCIES” (priority 2005, published 2009).

Assay: Serum level of 25(OH)D in an adult human after oral 250 μg (10,000 IU) vitamin D3 tablets (Nichols method)
Format: in vivo
Description: During the winter months an adult living in a northern region of the United States receiving no vitamin D supplements other than through their normal diet is found to have a serum level of 25(OH)D of about 25 nmole/L. The person is provided with four (4) blister packs, each pack containing four (4) 250 μg (10,000 IU) of vitamin D3. The blister pack has instructions to take one tablet by mouth once a week. The person is instructed to take all of the tablets according to instructions provided on the pack. Blood samples are drawn each week just before a tablet is taken and the serum levels of 25(OH)D are determined. Serum levels of 25(OH)D can be determined by the Nichols method (catalog no. 40-2135; Nichols Institute Diagnostics). Within approximately two months, serum levels increase by about 15 to about 20 nmole/L to a level of at least about 40 nmole/L.
During the winter months an adult living in a northern region of the United States receiving no vitamin D supplements other than through their normal diet is found to have a serum level of 25(OH)D of about 18 nmole/L. The person is provided with four (4) blister packs, each pack having one tablet for each day of the month [about thirty (30) tablets], and each tablet containing 250 μg (10,000 IU) of vitamin D3. The blister pack has instructions to take one tablet by mouth once a day, noting on the pack, where indicated, the date and time each tablet is taken. The person is instructed to take all of the tablets according to instructions provided on the pack. Blood samples are drawn after one (1) week and each week thereafter at approximately the same time and the serum levels of 25(OH)D are determined. Serum levels of 25(OH)D can be determined by the Nichols method (catalog no. 40-2135; Nichols Institute Diagnostics). Within approximately two months, serum levels increase by at least 100 nmole/L to a level of at least about 120 nmole/L and, within about 4 months, increase by at least about 180 nmole/L to a level of at least about 200 nmole/L.
During the winter months an adult living in a northern region of the United States receiving no vitamin D supplements other than through their normal diet is found to have a serum level of 25(OH)D of about 35 nmole/L. The person is provided with four (4) blister packs, each pack containing fifteen (15) 250 μg (10,000 IU) of vitamin D3. The blister pack has instructions to take one tablet by mouth once every other day, noting on the pack, where indicated, the date and time each tablet is taken. The person is instructed to take all of the tablets according to instructions provided on the pack. Blood samples are drawn each week at approximately the same time and the serum levels of 25(OH)D are determined. Serum levels of 25(OH)D can be determined by the Nichols method (catalog no. 40-2135; Nichols Institute Diagnostics). Within approximately one-month serum levels increase by at least about 60-70 nmole/L to a level of at least about 100 nmole/L and within about 4 months […] a level of about 120 nmole/L.

[1] = adult female, baseline about 18 nmole/L, 250 μg (10,000 IU) tablet by mouth once a day, within about 4 months
[2] = adult female, baseline about 18 nmole/L, 250 μg (10,000 IU) tablet by mouth once a day, within approximately two months
[3] = adult male, baseline about 35 nmole/L, 250 μg (10,000 IU) tablet by mouth once every other day, within approximately one month

Structure (SMILES): C=C1CC[C@H](O)C/C1=C/C=C1\CCC[C@]2(C)[C@@H]([C@H](C)CCCC(C)C)CC[C@@H]12 [vitamin D3]
- increase in serum level of 25(OH)D [1]: at least 180 nmole/L
- serum level of 25(OH)D [1]: at least 200 nmole/L
- increase in serum level of 25(OH)D [2]: at least 100 nmole/L
- serum level of 25(OH)D [2]: at least 120 nmole/L
- serum level of 25(OH)D (adult male, baseline about 25 nmole/L, 250 μg (10,000 IU) tablet by mouth once a week, within approximately two months): at least 40 nmole/L
- serum level of 25(OH)D (adult male, baseline about 35 nmole/L, 250 μg (10,000 IU) tablet by mouth once every other day, within about 4 months): about 120 nmole/L
- increase in serum level of 25(OH)D [3]: 60 to 70 nmol/L
- serum level of 25(OH)D [3]: at least 100 nmole/L
